For orientation: inhibition means the drop in the measured response relative to a control, in per cent.

Results on twelve compounds are retold here after patent publication US20140135310A1, “SULPHONAMIDE DERIVATIVES OF ALICYCLIC AMINES FOR THE TREATMENT OF CENTRAL NERVOUS SYSTEM DISEASES” (Adamed Sp. z o.o., priority 2011, published 2014).

The target of assay [1] is dopaminergic receptors D2 (Homo sapiens, UniProt P14416). Nature of the assay: Radioligand binding assay, dopaminergic D2 receptors. The following applies: binding assay, test compound 1×10^−6 M. A digest of the protocol:
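Ki from Cheng–Prusoff conversion of Hill-fitted IC50 values, using the assay radioligand concentration and a Scatchard-determined KD. Specific binding, scintillation-counted, excluded signal remaining under excess unlabelled ligand.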

Assay [2] concerns the target dopaminergic receptors D3 (Homo sapiens, UniProt P35462). Nature of the assay: Radioligand binding assay, dopaminergic D3 receptors. The following applies: test compound 1×10^−6 M. A digest of the protocol: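 Scintillation read-out. Specific = total − nonspecific (excess cold ligand). Data as % of control specific binding / % inhibition; IC50 by Hill fit; Ki = IC50/(1+L/KD), KD from Scatchard plot.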

The target in assay [3] is T1, 5-HT1A receptor (rat hippocampus) (Rattus norvegicus, UniProt P19327).
T1 construct: hippocampus; from tissue; host or cells: rat hippocampus
T1 sequence (P19327 1-422): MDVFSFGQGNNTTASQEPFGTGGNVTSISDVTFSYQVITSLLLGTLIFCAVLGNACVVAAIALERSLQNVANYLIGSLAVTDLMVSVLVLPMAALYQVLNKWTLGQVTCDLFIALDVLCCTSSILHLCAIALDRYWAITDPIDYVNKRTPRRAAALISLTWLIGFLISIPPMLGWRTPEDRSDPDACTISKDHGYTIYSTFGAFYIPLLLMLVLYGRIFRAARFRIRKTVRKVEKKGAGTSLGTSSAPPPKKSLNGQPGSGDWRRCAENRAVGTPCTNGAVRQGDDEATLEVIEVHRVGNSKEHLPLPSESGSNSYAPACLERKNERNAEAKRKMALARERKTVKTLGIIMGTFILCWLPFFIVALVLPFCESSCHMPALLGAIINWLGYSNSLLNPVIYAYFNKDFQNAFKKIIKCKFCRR
Description: Radioligand binding assay, serotoninergic 5-HT1A receptors.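 Note: test compound at 1 µM.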 Particulars: binding assay result in %, Table 5a.

A further assay has as its target T2, 5-HT2A receptor (Homo sapiens, UniProt P28223).
T2 construct: purchased PerkinElmer
Nature of the assay: Radioligand binding assay, serotoninergic 5-HT2A receptors. Particulars: binding assay result in %, Table 5a. In a few lines:
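Competition curves from scintillation-counted specific binding (total minus binding with excess unlabelled ligand) were Hill-fitted to give IC50, converted to Ki via Cheng-Prusoff using Scatchard-derived Kd.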

The next assay addresses T3, 5-HT6 receptor (Homo sapiens, UniProt P50406).
T3 construct: purchased PerkinElmer
Nature of the assay: Radioligand binding assay, serotoninergic 5-HT6 receptors.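 Note: test compound at 1 µM.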 Particulars: binding assay result in %, Table 5a. In a few lines: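 Values are Ki from Cheng–Prusoff, taking IC50 from Hill nonlinear regression of competition curves and KD from a Scatchard plot. Specific binding was total minus binding with excess unlabelled ligand. Radioligand displacement was detected by scintillation counting, and data were also reported as percent of control specific binding.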

The target of the next assay is T4, 5-HT7 receptor (Homo sapiens, UniProt P34969).
T4 construct: purchased PerkinElmer
T4 sequence (P34969 whole entry): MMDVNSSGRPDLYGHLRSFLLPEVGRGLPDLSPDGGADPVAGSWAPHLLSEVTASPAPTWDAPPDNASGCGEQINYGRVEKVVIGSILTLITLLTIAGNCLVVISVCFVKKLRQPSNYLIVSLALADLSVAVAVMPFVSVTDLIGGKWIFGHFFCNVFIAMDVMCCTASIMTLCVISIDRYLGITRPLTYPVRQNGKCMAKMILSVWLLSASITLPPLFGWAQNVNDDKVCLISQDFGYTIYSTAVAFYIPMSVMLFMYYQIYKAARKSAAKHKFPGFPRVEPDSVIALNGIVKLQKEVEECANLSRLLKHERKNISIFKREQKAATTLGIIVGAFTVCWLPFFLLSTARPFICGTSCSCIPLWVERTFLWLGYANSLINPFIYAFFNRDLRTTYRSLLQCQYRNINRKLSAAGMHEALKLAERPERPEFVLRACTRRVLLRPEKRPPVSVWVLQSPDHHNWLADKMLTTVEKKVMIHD
Nature of the assay: Radioligand binding assay, serotoninergic 5-HT7 receptors.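 Note: test compound at 1 µM.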 Particulars: binding assay result in %, Table 5a. In a few lines: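 Ki values used the Cheng–Prusoff equation, with KD from Scatchard analysis, applied to IC50 from Hill fits of human 5-HT7 radioligand competition curves. Bound radioligand was counted by scintillation, and excess unlabelled ligand set the non-specific binding.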

For assay [4], the system named is α1 adrenergic receptors (rat cerebral cortex). Description: Radioligand binding assay, adrenergic α1 receptors. Particulars: test compound 1×10^−6 M. A digest of the protocol: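 Values derive from radioligand displacement, with non-specific binding defined by excess cold ligand and detection by scintillation. Hill-fit IC50s were converted to Ki via Cheng-Prusoff using Scatchard-derived Kd; percent inhibition of control specific binding also reported.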

The target of assay [5] is T5, serotonin transporter (SERT) (Homo sapiens, UniProt P31645).
T5 construct: expressed in transfected cells; host or cells: CHO cells
T5 sequence (P31645 whole entry): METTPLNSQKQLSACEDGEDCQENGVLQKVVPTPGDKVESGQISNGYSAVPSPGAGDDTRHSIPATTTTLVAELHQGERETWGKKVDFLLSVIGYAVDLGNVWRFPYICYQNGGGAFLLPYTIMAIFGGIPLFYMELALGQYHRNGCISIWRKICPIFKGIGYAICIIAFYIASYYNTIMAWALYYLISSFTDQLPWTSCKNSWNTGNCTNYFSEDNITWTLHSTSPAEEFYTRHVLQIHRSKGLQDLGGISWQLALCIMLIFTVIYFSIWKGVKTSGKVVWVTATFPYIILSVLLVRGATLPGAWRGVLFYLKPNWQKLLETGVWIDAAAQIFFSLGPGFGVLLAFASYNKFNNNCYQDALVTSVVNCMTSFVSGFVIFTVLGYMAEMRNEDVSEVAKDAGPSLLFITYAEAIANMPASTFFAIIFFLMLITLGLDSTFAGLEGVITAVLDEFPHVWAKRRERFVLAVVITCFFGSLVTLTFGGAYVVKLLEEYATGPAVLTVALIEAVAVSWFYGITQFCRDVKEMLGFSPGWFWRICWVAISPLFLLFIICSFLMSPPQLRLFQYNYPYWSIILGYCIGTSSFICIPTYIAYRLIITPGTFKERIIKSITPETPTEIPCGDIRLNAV
Description: Radioligand binding assay, serotonin transporter (SERT). Particulars: binding assay, test compound 1×10^−6 M. In a few lines:
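Values are derived from competition curves fitted by the Hill equation to give IC50, then converted to Ki by Cheng-Prusoff with radioligand Kd from Scatchard analysis. Specific binding equals total minus non-specific (excess cold ligand), counted by scintillation, and is also expressed as percent inhibition of control.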

Chain of dopaminergic receptors D2 (P14416 whole entry): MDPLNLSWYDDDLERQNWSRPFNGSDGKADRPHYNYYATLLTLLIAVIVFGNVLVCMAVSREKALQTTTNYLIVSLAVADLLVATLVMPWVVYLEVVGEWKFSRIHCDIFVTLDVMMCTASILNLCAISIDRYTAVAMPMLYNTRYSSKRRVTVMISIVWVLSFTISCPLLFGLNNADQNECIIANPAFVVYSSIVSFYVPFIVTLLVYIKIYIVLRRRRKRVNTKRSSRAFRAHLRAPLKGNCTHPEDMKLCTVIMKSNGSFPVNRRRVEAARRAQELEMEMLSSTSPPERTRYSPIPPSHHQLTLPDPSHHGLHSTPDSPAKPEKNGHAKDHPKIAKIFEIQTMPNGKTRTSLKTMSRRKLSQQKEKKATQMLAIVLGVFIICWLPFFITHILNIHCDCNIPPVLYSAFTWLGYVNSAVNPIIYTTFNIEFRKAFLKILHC
T3 sequence (P50406 whole entry): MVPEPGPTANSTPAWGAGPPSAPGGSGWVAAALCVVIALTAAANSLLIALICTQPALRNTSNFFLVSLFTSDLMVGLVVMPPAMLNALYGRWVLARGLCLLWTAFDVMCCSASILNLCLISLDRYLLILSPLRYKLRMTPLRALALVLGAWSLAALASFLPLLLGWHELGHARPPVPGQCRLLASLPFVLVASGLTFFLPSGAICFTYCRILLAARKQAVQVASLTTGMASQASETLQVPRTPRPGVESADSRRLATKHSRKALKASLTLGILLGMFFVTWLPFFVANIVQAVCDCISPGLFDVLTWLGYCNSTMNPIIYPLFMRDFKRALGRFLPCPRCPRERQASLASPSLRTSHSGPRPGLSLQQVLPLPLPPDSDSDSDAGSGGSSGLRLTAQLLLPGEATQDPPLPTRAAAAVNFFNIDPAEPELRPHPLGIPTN
T2 sequence (P28223 whole entry): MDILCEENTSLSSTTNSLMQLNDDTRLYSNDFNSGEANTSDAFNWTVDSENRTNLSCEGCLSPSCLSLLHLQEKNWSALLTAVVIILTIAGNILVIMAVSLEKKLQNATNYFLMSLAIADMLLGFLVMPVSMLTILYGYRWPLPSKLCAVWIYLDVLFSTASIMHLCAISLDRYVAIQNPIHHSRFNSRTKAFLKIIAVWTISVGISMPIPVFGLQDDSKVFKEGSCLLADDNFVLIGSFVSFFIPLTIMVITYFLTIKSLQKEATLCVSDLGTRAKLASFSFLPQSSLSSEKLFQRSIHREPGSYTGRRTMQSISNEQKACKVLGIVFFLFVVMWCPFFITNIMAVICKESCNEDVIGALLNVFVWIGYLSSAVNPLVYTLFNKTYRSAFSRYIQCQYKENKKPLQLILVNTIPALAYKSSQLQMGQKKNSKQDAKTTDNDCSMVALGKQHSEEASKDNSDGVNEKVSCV
Chain of dopaminergic receptors D3 (P35462 whole entry): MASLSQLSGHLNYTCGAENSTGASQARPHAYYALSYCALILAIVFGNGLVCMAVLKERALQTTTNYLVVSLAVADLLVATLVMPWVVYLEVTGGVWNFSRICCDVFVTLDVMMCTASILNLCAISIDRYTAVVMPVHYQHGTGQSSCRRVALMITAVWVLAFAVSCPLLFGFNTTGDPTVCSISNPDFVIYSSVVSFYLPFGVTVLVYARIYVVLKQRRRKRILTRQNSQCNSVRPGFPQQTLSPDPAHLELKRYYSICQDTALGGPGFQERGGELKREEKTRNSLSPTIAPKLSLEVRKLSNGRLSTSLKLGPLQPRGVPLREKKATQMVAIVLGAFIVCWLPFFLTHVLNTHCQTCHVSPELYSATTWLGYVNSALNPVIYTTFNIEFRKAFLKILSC

On to `O=S(=O)(NC1CCN(CCOc2cccc3c2OCCO3)C1)c1ccccc1` (stereo not drawn) [Compound 96, N-[1-[2-(2,3-Dihydro-1,4-benzodioxan-8-yloxy)ethyl]pyrrolidin-3-yl]-benzenesulphonamide], for which the “D2 [%]” value in assay [1] turned out to be 46%. In assay [2], the “D3 [%]” value is listed as 56%. For the same compound, the “5-HT1A [%]” value in assay [3] stood at 92%. In addition, on 5-HT2A receptor, the “5-HT2A [%]” value turned out to be 93%. In addition, at 5-HT6 receptor, the “5-HT6 [%]” value came out at 5%. On 5-HT7 receptor, the “5-HT7 [%]” value stood at 98%. Further, in assay [4], the “α1 [%]” value amounted to 60%. Besides, the “SERT [%]” value in assay [5] amounted to 11%.
For the compound `O=S(=O)(NCC1CN(CCOc2nsc3ccccc23)C1)c1ccc2ccccc2c1` [Compound 162, N-[[1-[2-(1,2-Benzothiazol-3-yloxy)ethyl]azetidin-3-yl]methyl]-naphthalene-2-sulphonamide], the inhibition at 1 µM in assay [1] was 61%; in assay [2], 100%; in assay [3], 85%; at 5-HT2A receptor, -17%; on 5-HT6 receptor, -56%; at 5-HT7 receptor, 91%. In addition, the inhibition at 1 µM in assay [5] is -9%. For the same compound, the “α1 [%]” value in assay [4] came to 83%.
As for `O=S(=O)(NC1CCN(CCCc2noc3cc(F)ccc23)C1)c1ccc(F)cc1` (stereo not drawn) [Compound 8, 4-Fluoro-N-[1-[3-(6-fluoro-1,2-benzoxazol-3-yl)propyl]pyrrolidin-3-yl]benzenesulphonamide], the inhibition at 1 µM in assay [1] is 72%; in assay [2], 18%; in assay [3] it was 5%; at 5-HT2A receptor, 97%; on 5-HT6 receptor it was 64%; on 5-HT7 receptor it was 85%. Besides, the inhibition at 1 µM in assay [5] is -13%. For the same compound, the “α1 [%]” value in assay [4] stood at 95%.
On to `O=S(=O)(NCC1CN(CCOc2cccc3ccccc23)C1)c1ccc(F)c(F)c1` [Compound 173, 3,4-Difluoro-N-[[1-[2-(1-naphthyloxy)ethyl]azetidin-3-yl]methyl]-benzenesulphonamide], for which the inhibition at 1 µM in assay [1] amounted to 59%; in assay [2], 99%; in assay [3], 83%; at 5-HT2A receptor, 73%; on 5-HT6 receptor, 91%; at 5-HT7 receptor it was 105%. Moreover, the inhibition at 1 µM in assay [5] was 50%. Besides, in assay [4], the “α1 [%]” value is recorded as 56%.
Turning to `O=S(=O)(NCC1CCN(CCOc2cccc3c2OCCO3)C1)c1ccc(Cl)s1` (stereo not drawn) [Compound 316, 5-Chloro-N-[[1-[2-(2,3-dihydro-1,4-benzodioxin-5-yloxy)ethyl]pyrrolidin-3-yl]-methyl]thiophene-2-sulphonamide], the inhibition at 1 µM in assay [1] is -2%; in assay [2], 36%; in assay [3], 74%; on 5-HT2A receptor, 82%; at 5-HT6 receptor, 36%; at 5-HT7 receptor, 87%. Further, in assay [5], the inhibition at 1 µM was determined as 8%. For the same compound, the “α1 [%]” value in assay [4] is recorded as 66%.
Turning to `O=S(=O)(NC1CCN(CCCc2c[nH]c3ccc(Cl)cc23)C1)c1ccc(Cl)cc1` (stereo not drawn) [Compound 85, 4-Chloro-N-[1-[3-(5-chloro-1H-indol-3-yl)propyl]pyrrolidin-3-yl]-benzene-sulphonamide], the inhibition at 1 µM was determined as 45% in assay [1]; 75% in assay [2]; 102% in assay [3]; 64% on 5-HT2A receptor; 82% on 5-HT6 receptor; 89% at 5-HT7 receptor. Moreover, the inhibition at 1 µM in assay [5] is 70%. Moreover, the “α1 [%]” value in assay [4] stood at 9%.
For `O=S(=O)(NCC1CN(CCOc2cccc3ccccc23)C1)c1cc2ccccc2s1` [Compound 163, N-[[1-[2-(1-Naphthyloxy)ethyl]azetidin-3-yl]methyl]benzothiophene-2-sulphonamide], the inhibition at 1 µM in assay [1] was determined as 73%; in assay [2], 99%; in assay [3] it was 88%; at 5-HT2A receptor, 99%; at 5-HT6 receptor, 87%; at 5-HT7 receptor it was 88%. In assay [5], the inhibition at 1 µM stood at 45%. Also, the “α1 [%]” value in assay [4] is given as 27%.
Turning to `O=S(=O)(NC1CCN(CCOc2cccc3[nH]ccc23)CC1)c1ccc2ccccc2c1` [Compound 61, N-[1-[2-(1H-Indol-4-yloxy)ethyl]-4-piperidine]naphthalene-2-sulphonamide], in assay [1], the “D2 [%]” value came out at 39%. For the same compound, the “D3 [%]” value in assay [2] amounted to 83%. The “5-HT1A [%]” value in assay [3] was found to be 77%. Moreover, the “5-HT2A [%]” value on 5-HT2A receptor came to 92%. Also, the “5-HT6 [%]” value on 5-HT6 receptor was 71%. Besides, the “5-HT7 [%]” value on 5-HT7 receptor is listed as 95%. For the same compound, the “α1 [%]” value in assay [4] stood at 79%. The “SERT [%]” value in assay [5] was determined as 43%.
For `Cn1ccc2cc(S(=O)(=O)NCC3CN(CCCc4noc5cc(F)ccc45)C3)ccc21` [Compound 150, N-[[1-[3-(6-Fluoro-1,2-benzoxazol-3-yl)propyl]azetidin-3-yl]methyl]-1-methyl-indole-5-sulphonamide], the inhibition at 1 µM was 53% in assay [1]; 60% in assay [2]; -9% in assay [3]; 85% at 5-HT2A receptor; 65% at 5-HT6 receptor; 84% on 5-HT7 receptor. In addition, in assay [5], the inhibition at 1 µM was 12%. For the same compound, the “α1 [%]” value in assay [4] is reported as 98%.
In the case of `O=S(=O)(NC1CCN(CCCc2noc3cc(F)ccc23)C1)c1cccc(C(F)(F)F)c1` (stereo not drawn) [Compound 15, N-[1-[3-(6-Fluoro-1,2-benzoxazol-3-yl)propyl]pyrrolidin-3-yl]-3-(trifluoromethyl)benzenesulphonamide], the inhibition at 1 µM in assay [1] was determined as 75%; in assay [2], 14%; in assay [3], 18%; on 5-HT2A receptor, 57%; on 5-HT6 receptor, 83%; on 5-HT7 receptor, 48%. The inhibition at 1 µM in assay [5] was -7%. In addition, in assay [4], the “α1 [%]” value was 89%.
For the compound `O=S(=O)(NCC1CN(CCOc2cccc3c2OCCO3)C1)c1ccc(-c2ccccc2)cc1` [Compound 178, N-[[1-[2-(2,3-Dihydro-1,4-benzodioxin-5-yloxy)ethyl]azetidin-3-yl]methyl]-4-phenyl-benzenesulphonamide], the inhibition at 1 µM in assay [1] is 8%; in assay [2], 25%; in assay [3], 96%; at 5-HT2A receptor, 73%; at 5-HT6 receptor, 21%; on 5-HT7 receptor, 89%. The inhibition at 1 µM in assay [5] was -6%. In addition, in assay [4], the “α1 [%]” value is recorded as 20%.
For `O=S(=O)(NCC1CCN(CCOc2cccc3ccccc23)C1)c1ccc2cc(Cl)ccc2c1` (stereo not drawn) [Compound 270, 6-Chloro-N-[[1-[2-(1-naphthyloxy)ethyl]pyrrolidin-3-yl]methyl]naphthalene-2-sulphonamide], the inhibition at 1 µM in assay [1] was 32%; in assay [2], 91%; in assay [3], 47%; at 5-HT2A receptor, 86%; at 5-HT6 receptor it was 86%; on 5-HT7 receptor it was 94%. Further, the inhibition at 1 µM in assay [5] stood at 15%. In addition, the “α1 [%]” value in assay [4] is given as −5%.
